In patent US6900336B2, “8-aza-11-deoxy prostaglandin analogues” (Syntex (U.S.A.) LLC, priority 2001, dated 2005):

What was measured:
rEP1 Receptor = biological target: T1, rEP1 Receptor (UniProt P70597); assay: Competitive Binding Assay of [3H]PGE2 to rEP1 Receptor; settings: 3 nM [3H]PGE2, membrane fraction, 1 hr at 30° C.; read-out: EP1, Ki
T1 sequence (P70597 1-405): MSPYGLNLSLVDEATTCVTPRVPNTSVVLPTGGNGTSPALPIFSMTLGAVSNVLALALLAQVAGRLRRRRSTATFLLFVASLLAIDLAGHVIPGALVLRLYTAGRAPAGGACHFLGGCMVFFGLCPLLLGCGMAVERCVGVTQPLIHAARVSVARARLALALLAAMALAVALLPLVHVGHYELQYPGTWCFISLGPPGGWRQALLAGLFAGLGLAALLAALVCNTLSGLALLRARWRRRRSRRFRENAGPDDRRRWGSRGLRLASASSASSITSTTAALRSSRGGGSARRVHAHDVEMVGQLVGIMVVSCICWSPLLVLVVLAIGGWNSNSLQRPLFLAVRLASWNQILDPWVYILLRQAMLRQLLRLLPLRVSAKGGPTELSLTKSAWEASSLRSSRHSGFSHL
Protocol: (§1) Competitive Binding Assay of [^3H]PGE2 to rEP1 or rEP3 Receptor
(§2) The cells were maintained in culture then harvested upon confluency. The membrane was prepared by two times of centrifugation (12,000× g for 15 min) following lysis of cells by polytron homogenization of 15 sec. in 10 volume of 20 mM Hepes pH 7.4 containing 1 mM EDTA, 10 mM MgCl2, 20 uM indomethacin at 4° C. […] Incubations were conducted for 1 hr at 30° C. prior to separation of the bound and free radioligand by rapid filtration. Residual [^3H]PGE2 bound to the filter was quantitated by liquid scintillation counting. The Ki of a compound was calculated by the program of one site binding calculation of Prism.

EP2 Receptor = biological target: T2, EP2 Receptor (Homo sapiens, UniProt P43116); assay: EP2 Ki (table under competitive [3H]PGE2 binding assay)
T2 construct: host or cells: unnamed cultured cells, membrane fraction

rEP3 Receptor = biological target: T3, rEP3 Receptor (UniProt P34980); assay: Competitive Binding Assay of [3H]PGE2 to rEP3 Receptor; settings: 3 nM [3H]PGE2, membrane fraction, 1 hr at 30° C.; read-out: EP3, Ki
T3 sequence (P34980 1-365): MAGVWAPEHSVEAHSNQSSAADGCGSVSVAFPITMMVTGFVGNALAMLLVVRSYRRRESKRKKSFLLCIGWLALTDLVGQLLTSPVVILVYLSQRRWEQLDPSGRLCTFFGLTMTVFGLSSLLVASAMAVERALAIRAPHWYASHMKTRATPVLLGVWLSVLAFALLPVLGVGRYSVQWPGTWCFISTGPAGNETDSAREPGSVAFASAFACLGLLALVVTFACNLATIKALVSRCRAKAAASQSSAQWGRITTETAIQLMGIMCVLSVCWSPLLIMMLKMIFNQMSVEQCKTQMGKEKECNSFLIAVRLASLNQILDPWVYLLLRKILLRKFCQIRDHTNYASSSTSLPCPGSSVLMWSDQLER
Protocol: as §1
The cells were maintained in culture then harvested upon confluency. […] Incubations were conducted for 1 hr at 30° C. prior to separation of the bound and free radioligand by rapid filtration. Residual [^3H]PGE2 bound to the filter was quantitated by liquid scintillation counting. The Ki of a compound was calculated by the program of one site binding calculation of Prism.

EP4 Receptor = biological target: T4, EP4 Receptor (Homo sapiens, UniProt P35408); assay: EP4 Ki (table under competitive [3H]PGE2 binding assay)
T4 construct: host or cells: unnamed cultured cells, membrane fraction
Protocol: [Worded in the source for another target; this target is reported under the same test.] as §1, §2

T4 sequence (P35408 whole entry): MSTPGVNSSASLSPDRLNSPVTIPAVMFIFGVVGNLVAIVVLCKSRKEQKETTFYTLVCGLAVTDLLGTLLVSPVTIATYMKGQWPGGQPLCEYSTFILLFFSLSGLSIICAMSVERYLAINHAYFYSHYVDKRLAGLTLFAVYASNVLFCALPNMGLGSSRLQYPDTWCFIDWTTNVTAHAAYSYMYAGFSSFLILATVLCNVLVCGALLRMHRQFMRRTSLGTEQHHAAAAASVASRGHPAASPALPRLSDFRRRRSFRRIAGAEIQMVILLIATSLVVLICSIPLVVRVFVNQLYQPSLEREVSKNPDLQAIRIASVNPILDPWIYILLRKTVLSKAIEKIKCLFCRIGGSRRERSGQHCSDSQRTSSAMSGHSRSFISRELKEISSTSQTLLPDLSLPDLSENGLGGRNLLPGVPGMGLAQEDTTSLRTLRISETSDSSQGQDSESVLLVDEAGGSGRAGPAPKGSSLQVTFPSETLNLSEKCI
T2 sequence (P43116 whole entry): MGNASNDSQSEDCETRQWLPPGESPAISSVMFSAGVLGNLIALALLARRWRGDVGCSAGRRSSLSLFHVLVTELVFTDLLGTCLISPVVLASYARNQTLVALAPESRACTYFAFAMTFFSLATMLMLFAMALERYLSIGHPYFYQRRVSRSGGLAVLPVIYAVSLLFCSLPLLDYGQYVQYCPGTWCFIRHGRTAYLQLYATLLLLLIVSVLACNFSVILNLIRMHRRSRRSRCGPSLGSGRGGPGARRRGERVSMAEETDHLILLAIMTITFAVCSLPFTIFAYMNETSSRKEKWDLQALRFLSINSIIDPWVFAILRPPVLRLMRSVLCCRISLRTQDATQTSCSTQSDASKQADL

Compound | Ki (rEP1 Receptor) | Ki (EP2 Receptor) | Ki (rEP3 Receptor) | Ki (EP4 Receptor)
CC1(C)C[C@H](/C=C/C(O)c2ccc(C(F)(F)F)o2)N(CCCCCCC(=O)O)C1=O (stereo partly drawn) [Compound 55, 7-{(R)-5-[(E)-3-hydroxy-3-(5-trifluoromethyl-furan-2-yl)-propenyl]-3,3-dimethyl-2-oxo-pyrrolidin-1-yl}-heptanoic acid] | > 100 µM | > 100 µM | > 100 µM | 0.007 µM
COCc1cccc(CC(O)/C=C/[C@H]2CC(C)(C)C(=O)N2CCCCCCC(=O)O)c1 (stereo partly drawn) [Compound 59, 7-{(R)-5-[(E)-3-Hydroxy-4-(3-methoxymethyl-phenyl)-but-1-enyl]-3,3-dimethyl-2-oxo-pyrrolidin-1-yl}-heptanoic acid] |  | > 100 µM | > 100 µM | 0.07 µM
CCCCCC(O)/C=C/[C@H]1CCC(=O)N1CCc1ccc(C(=O)O)s1 (stereo partly shown) [Compound 82] |  | 3.7 µM | > 100 µM | 0.069 µM
O=C(O)CCCCCCN1C(=O)CC[C@@H]1/C=C/C(O)c1cccc(Oc2ccc(Cl)cc2)c1 (stereo partly drawn) [Compound 74, 7-((R)-2-{(E)-3-[3-(4-chloro-phenoxy)-phenyl]-3-hydroxy-propenyl}-5-oxo-pyrrolidin-1-yl)-heptanoic acid] |  | 22.9 µM | 47 µM | 0.01 µM
Cc1cc(Cl)ccc1-c1cccc([C@H](O)CC[C@H]2CCC(=O)N2CCc2ccc(C(=O)O)cc2)c1 [Compound 81, 4-(2-{(S)-2-[(R)-3-(4′-Chloro-2′-methyl-biphenyl-3-yl)-3-hydroxy-propyl]-5-oxo-pyrrolidin-1-yl}-ethyl)-benzoic acid] |  | 5.1 µM | 54 µM | 0.00094 µM
CCCCC[C@H](O)/C=C/[C@H]1CCC(=O)N1CCc1ccc(C(=O)O)cc1 [Compound 76, 4-{2-[(R)-2-((E)-3-Hydroxy-oct-1-enyl)-5-oxo-pyrrolidin-1-yl]-ethyl}-benzoic Acid] |  | 0.13 µM | 11 µM | 0.0012 µM
